Tests used:
5×FAD+/− mice = experiment: Learning and memory tests (Morris water maze, novel object recognition) in 5×FAD+/− mice; format: in vivo, mouse; settings: 3.2 mg/kg/day for one month started at 2-3 months of age (before AD symptoms), tested at 3-4 months; vs DMSO
Procedure: (§1) Adult genetically engineered mice, 5×FAD^+/− (Oakley et al., 2006), RyR2-E4872Q^+/− (EQ^+/−) (Chen et al., 2014), 5×FAD^+/−/RyR2-E4872Q^+/− (5×FAD^+/−/EQ^+/−), and wildtype (WT) littermates of both sexes were used. R-carvedilol (R-CV) (at doses of 0.8, 1.6 or 3.2 mg/kg/day), racemic carvedilol (3.2 mg/kg/day), and vehicle control (DMSO) were delivered to 5×FAD^+/− mice in drinking water for one month, starting at different ages before (2-3 months old) or after (3-4 months old) the occurrence of AD pathologies (Oakley et al., 2006). To assess the effects of genetically and pharmacologically limiting RyR2 open time on the prevention and rescue of AD deficits in different stages (early, moderate, and late) of AD progression, animals at different ages (from 2-15 months) were used. As reported (Oakley et al., 2006), there was an age-dependence of AD progression in the 5×FAD^+/− mice. No sex-dependent differences in AD progression in these mice was observed. For 2-photon Ca^2+ imaging experiments, 5×FAD, RyR2 WT, and RyR2 mutant mice were cross-bred with the heterozygous Thy1-GCaMP6f transgenic mice (Chen et al., 2012; Chen et al., 2013) (GP5.17, JAX 025393) to express the GCaMP6f Ca^2+ sensing probe (driven by the Thy1 promotor) in hippocampal neurons in each of the genotypes used.
The learning and memory of mice with all genotypes were evaluated using the Morris water maze (MWM) test, the Barnes maze (BM) test, and/or the novel object recognition (NOR) test. Experiments were carried out blindly. For the MWM test, mice at different ages were trained to localize a hidden escape platform (10×10 cm) in a circular pool (116.84 cm in diameter, 50 cm in depth) (San Diego Instruments, CA) via distal visual cue. The platform was submerged 1-2 cm beneath the surface in water (22-24°C.), which was rendered opaque by addition of milk powder. The localization of the pool in relation to visual cues was maintained constantly during the entire task. The cues were distinct in color and shape. Digital division of the tracking area (pool) into four quadrants was performed by the SMART video tracking system, Smart 3.0 (Panlab Harvard Apparatus; Barcelona Spain). The escape platform was placed in the centre of the south-west quadrant for the entirety of the learning phase (4 training days) and digitally defined as target. Spatial training consisted of 4 days with 5 trials per mouse per day. Mice were released with their heads facing the pool wall at one of four entry locations (north, east, south and west) in a non-repetitive random order. Swimming was automatically video-tracked until the subject found the escape platform and remained on it (≥5 sec), or until a maximum of 60 seconds. […] In between trials (inter-trial interval ≥10 min), mice were housed in heated cages to avoid performance deficits due to exhaustion or hypothermia. The latency and swimming speed to reach the escape platform were recorded for comparison. After the learning phase, memory retention was evaluated by one probe trial 24 hours after the last training session. The escape platform was removed before mice were released from the north entry point into the pool. Their swimming was video-tracked for 60 seconds. The area at the location of the removed hidden platform was defined as the target and the south-west quadrant the target quadrant. The percentage of time mice spent in the target quadrant (including the target) were measured for comparison.
For the NOR test, mice were habituated for 10 min per mouse in an equally illuminated, odor-free, white, plastic box (40×40×50 cm^3) embedded with fresh aspen shavings and shreds. In between each mouse trial the box was wiped with ethanol to avoid odor-induced stress. 24 hours after habituation, two identical objects ware placed at equal distance to each other and the corners of the box. Each mouse was placed into the center, and allowed to move freely for 10 min. Mice were video recorded during this familiarizing phase. […]

[1] = test system: hippocampal CA3-CA1 pathway of 5×FAD+/− mice; experiment: Long-term potentiation / fEPSP recording in hippocampal slices from treated 5×FAD+/− mice; format: in vivo, mouse; settings: 3.2 mg/kg/day for one month started at 2-3 months of age (before AD symptoms), slices at 3-4 months; vs DMSO
Procedure: as §1, with “As reported (Oakley et al., 2006), there was an age-dependence of AD progression in the 5×FAD^+/− mice. No sex-dependent differences in AD progression in these mice was observed.” left out
Schaffer collateral fibers were stimulated at the CA3 subfield to record field excitatory postsynaptic potentials (fEPSPs) in the CA1 stratum radiatum of transverse hippocampal slices ([…]) from all genotypes and drug-treated mice at different ages. After recovering at room temperature for 1 h (or 2 h for brain slices from drug-treated mice), hippocampal slices were allowed to recover in the recording chamber for additional 10 min. To evaluate basal synaptic transmission, different stimulation strengths (0 μA to 200 μA in steps of 20 μA) were applied and plotted fEPSP slopes versus the current input to compare the slope of input/output (I/O) curves of fEPSP. In the experiments that followed, stimulus current was adjusted so that fEPSP stabilized at 40-50% of maximum. Baseline was recorded for at least […] until the differences among fEPSP slopes were within 10%. Long-term potentiation (LTP) was induced using a tetanic high-frequency stimulation (HFS; 4 trains of 100 pulses at 100 Hz, with 20-sec intervals). Synaptic responses were recorded for at least 60 min after tetanization and quantified as the slope of the evoked fEPSP as percentage of the baseline.

[2] = test system: ryanodine receptor (RyR2); settings: cited from earlier work
oligomeric Aβ = settings: chronic treatment, animal studies; cited from earlier work
AD = settings: racemic mixture at a dose of 25 mg per day, pilot clinical trial; cited from earlier work
[3] = test system: Kv4.2/KChIP4 channel complex; experiment: Whole-cell A-type K+ current recording in Kv4.2/KChIP4 transfected HEK293 cells expressing RyR2 WT; format: cell-based; settings: caffeine 2.5 mM, 2 min after application vs baseline
Procedure: Previous studies used whole-cell patch clamp recordings at the soma of CA1 pyramidal cells to measure the whole-cell A-type K^+ current (Chen, 2005; Good et al., 1996; Hall et al., 2015; Scala et al., 2015). To make comparisons to earlier studies, the same approach was employed. Briefly, whole-cell A-type K^+ current (IA) was elicited by depolarizing pulses to +40 mV from a holding potential of −100 mV in the presence of 20 mM tetraethylammonium (TEA) and 100 nM tetrodotoxin (TTX). In steady-state activation experiments, membrane potential was held at −100 mV, and IA was evoked by a 200-ms depolarizing pulse from a first pulse potential of −80 mV to +80 my in 10-mV steps at 10-s intervals, Data were analyzed using the equation GK=IK/(Vm−Vrev), where GK is the membrane K^+ conductance, Vm is the membrane potential, and Vrev is the reversal potential for K^+. To study steady-state inactivation of IA, currents were elicited using 1-s conditioning pre-pulses from −110 mV to 0 mV before a 200-ms test pulse of +50 mV. After normalizing each current amplitude to the maximal current, amplitude obtained from the −110 mV pre-pulse was used as a function of the conditioning pre-pulse potential and fitted with the function IA/IA−max=1/(1+exp((Vm1/2−Vm)/k)), from which, an inactivation curve of IA was obtained, and the VH value (the voltage at which the current amplitude was half-inactivated) was calculated. The somatic whole-cell recordings provide information on the magnitude of somatic A-type K^+ current, an important determinant of somatic excitability.
For HEK293 cell experiments, HEK293 cell lines were maintained as previously described (Jiang et al., 2004) and transiently transfected with cDNAs of Kv4.2 and KChIP4 together with cDNA encoding for GFP to identify cells successfully transfected. 12-16 h before recording, tetracycline was added to culture media to induce the expression of RyR2 WI or RyR2 E4872Q mutant. IA was recorded with the same protocols as described above. Prior to IA recording, the culture medium was replaced with a bath solution (NaCl, 125 mM; KCl, 2.5 mM; HEPES, 10 mM; MgCl2, 1 mM; glucose, 10 mM; TEA, 20 mM; pH 7.4 adjusted with NaOH).

[4] = test system: 5×FAD+/− CA1 pyramidal neurons; experiment: Whole-cell patch-clamp recording of action potential firing in 5×FAD+/− CA1 pyramidal neurons in brain slices; format: cell-based, mouse; settings: 10 μM, 3-4 months old 5×FAD+/− CA1 pyramidal neurons
Procedure: Acute brain slices were prepared according to the published procedures with some modifications (Ting et al., 2014; Ting et al., 2018).
For whole-cell patch-clamp recordings, slices were transferred to a submerged recording chamber perfused with carbogenated external solutions at a flow rate of 4-6 mL/min at room temperature. Action potentials (APs) were measured in hippocampal CA1 pyramidal neurons in transverse hippocampal slices (260 μm) from all genotypes of 3-4 months old mice using whole-cell patch-clamp with an […] amplifier (Axon Instruments). […] Membrane potentials in 5-6 months old or older neurons were not measured as aged neurons are difficult to patch. AP firing was recorded in an external solution (NaCl, 124 mM; KCl, 2.5 mM; NaH2PO4, 1.25 mM; NaHCO3, 24 mM; HEPES, 5 mM; glucose, 12.5 mM; MgCl2, 2 mM; and CaCl2, 2 mM; pH 7.4 adjusted with NaOH) and soft-glass recording pipettes (Sutter Instruments; Novato CA) filled with an internal solution (potassium gluconate, 135 mM, KCl, 10 mM, HEPES, 10 mM, CaCl2, 1 mM, MgCl2, 1 mM, EGTA, 10 mM, ATP, 1 mM, GTP, 0.1 mM, and pH 7.3 adjusted with KOH). […] For spontaneous AP recording, cells were hold at −70 mV and recorded for 3 min. […] For testing the Kv4 channel agonist NS5806, APs were measured before and 15 min after perfusion of 10 μM NS5806 in the external solution. […]

## COc1ccccc1OCCNCC(O)COc1cccc2[nH]c3ccccc3c12 (racemic) [Racemic carvedilol, carvedilol]
5×FAD+/− mice
  memory loss / learning and memory deficits (MWM, NOR): did not prevent
[1]
  LTP impairment: did not prevent
[2]
  store-overload-induced Ca2+ release: reduces
Oligomeric Aβ
  content of oligomeric Aβ in the brain: significantly reduced
AD
  improvement in AD: no significant improvement

## Cn1c(=O)c2c(ncn2C)n(C)c1=O [Caffeine]
[3]
  Kv4.2-mediated current: decreased
  decay time (inactivation time constant Tau) of Kv4.2-mediated current: decreased
  voltage-dependent activation of Kv4.2-mediated current: without altering
  voltage-dependent inactivation of Kv4.2-mediated current: without altering

## O=C(Nc1cc(C(F)(F)F)cc(C(F)(F)F)c1)Nc1c(Br)cc(Br)cc1-c1nn[nH]n1 [NS5806]
[4]; before vs 15 min after perfusion
  threshold current for inducing AP firing: dramatically increased
[4]; current injection-triggered
  frequency of AP firing: decreased

— patent publication US20230381139A1, “METHODS OF TREATING AND/OR PREVENTING ALZHEIMER’S DISEASE WITH R-CARVEDILOL” (priority 2020, published 2023)
